Results as given in patent US10457709B2, “Antimicrobial peptides, their variants and uses” (priority 2015, dated 2019).
Where two headings read alike, the source gives them in different places. Square brackets hold non-standard residues; d marks the D form. Peptide text beside a SMILES is read from it.

What was measured:
[1] = system: C. glabrata clinical strains; experiment: MIC, clinical yeast strains; type: cell-based, Candida glabrata; parameters: unit: µg/ml
Method in brief: (§1)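 Antifungal testing uses potato dextrose broth; antibacterial testing uses Mueller Hinton broth. Cell density is set to 5.0×10^5 cfu/ml and incubation runs 20–24 h at 37° C. MIC is the lowest concentration, within 0.125–128 μg/ml, at which no growth is visible.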

[2] = system: Escherichia coli clinical strains; type: cell-based; details: microdilution, Muller Hinton broth-cation adjusted, 0.02% BSA, 0.2% acetic acid
Method in brief: as §1

[3] = system: all the bacteria and yeasts tested; type: cell-based
Method in brief: as §1

[4] = system: Pseudomonas aeruginosa clinical strains; type: cell-based; details: microdilution, Muller Hinton broth-cation adjusted, 0.02% BSA, 0.2% acetic acid
Method in brief: as §1

[5] = system: Klebsiella pneumoniae clinical strains; type: cell-based; details: microdilution, Muller Hinton broth-cation adjusted, 0.02% BSA, 0.2% acetic acid
Method in brief: as §1

[6] = system: Acinetobacter baumannii clinical strains; type: cell-based; parameters: Minimum inhibitory concentration: unit: μg/ml; details: microdilution, Muller Hinton broth-cation adjusted, 0.02% BSA, 0.2% acetic acid
Method in brief: as §1

[7] = system: Staphylococcus aureus clinical strains; type: cell-based; parameters: Minimum inhibitory concentration: unit: μg/ml; details: microdilution, Muller Hinton broth-cation adjusted, 0.02% BSA, 0.2% acetic acid
Method in brief: as §1

[8] = system: Serratia marcescens clinical strains; type: cell-based; parameters: Minimum inhibitory concentration: unit: μg/ml; details: for Minimum inhibitory concentration: microdilution, Muller Hinton broth-cation adjusted, 0.02% BSA, 0.2% acetic acid
Method in brief: as §1

[9] = system: Enterobacter cloacae clinical strains; type: cell-based; parameters: Minimum inhibitory concentration: unit: μg/ml; details: microdilution, Muller Hinton broth-cation adjusted, 0.02% BSA, 0.2% acetic acid
Method in brief: as §1

[10] = system: Streptococcus pneumoniae clinical strains; type: cell-based; parameters: Minimum inhibitory concentration: unit: μg/ml; details: microdilution, Muller Hinton broth-cation adjusted, 0.02% BSA, 0.2% acetic acid
Method in brief: as §1

[11] = system: Proteus mirabilis clinical strains; type: cell-based; parameters: Minimum inhibitory concentration: unit: μg/ml; details: for Minimum inhibitory concentration: microdilution, Muller Hinton broth-cation adjusted, 0.02% BSA, 0.2% acetic acid
Method in brief: as §1

[12] = system: C. quillermondiae clinical strains; experiment: MIC, clinical yeast strains; type: cell-based, Candida quillermondiae; parameters: unit: μg/ml; details: C. quillermondiae clinical yeast strain 1
Method in brief: as §1

[13] = system: C. parapsilosis clinical strains; experiment: MIC, clinical yeast strains; type: cell-based, Candida parapsilosis; parameters: unit: µg/ml
Method in brief: as §1

[14] = system: Candida albicans clinical strains; experiment: MIC, clinical yeast strains; type: cell-based; parameters: unit: μg/ml
Method in brief: as §1

CC[C@@H](C)[C@@H](NC(=O)[C@@H](Cc1c[nH]c2ccccc12)NC(=O)[C@H](N)CCCCN)C(=O)N[C@@H](C(=O)N[C@H](Cc1c[nH]c2ccccc12)C(=O)N[C@H](CCCNC(=N)N)C(=O)N[C@H](Cc1c[nH]c2ccccc12)C(=O)N[C@H](CCCNC(=N)N)C(=O)N[C@H](Cc1ccccc1)C(=O)N[C@H](CCCCN)C(=O)N[C@H](CCCNC(=N)N)C(=O)O)C(C)C [Chain201D] (H-[dK][dW][dI][dV][dW][dR][dW][dR][dF][dK][dR]-OH)
Minimum inhibitory concentration ([1]; C. glabrata clinical yeast strain 1): 8
Minimum inhibitory concentration ([1]; C. glabrata clinical yeast strain 2): 8
Minimum inhibitory concentration ([1]; C. glabrata clinical yeast strain 3): 8
Minimum inhibitory concentration ([1]; C. glabrata clinical yeast strain 4): 64
Minimum inhibitory concentration ([2]; Escherichia coli clinical strain 1): 16
Minimum inhibitory concentration ([2]; Escherichia coli clinical strain 2): 1
Minimum inhibitory concentration ([2]; Escherichia coli clinical strain 3): 1
Minimum inhibitory concentration ([2]; Escherichia coli clinical strain 4): 1
Minimum inhibitory concentration ([2]; Escherichia coli clinical strain 5): 1
MICs against all the bacteria and yeasts tested [3]: 0.5 to 32 µg/mL
Minimum inhibitory concentration ([4]; Pseudomonas aeruginosa clinical strain 1): 4
Minimum inhibitory concentration ([4]; Pseudomonas aeruginosa clinical strain 2): 4
Minimum inhibitory concentration ([4]; Pseudomonas aeruginosa clinical strain 3): 4
Minimum inhibitory concentration ([4]; Pseudomonas aeruginosa clinical strain 4): 2
Minimum inhibitory concentration ([4]; Pseudomonas aeruginosa clinical strain 5): 2
Minimum inhibitory concentration ([5]; Klebsiella pneumoniae clinical strain 1): 2
Minimum inhibitory concentration ([5]; Klebsiella pneumoniae clinical strain 2): 2
Minimum inhibitory concentration ([5]; Klebsiella pneumoniae clinical strain 3): 4
Minimum inhibitory concentration ([5]; Klebsiella pneumoniae clinical strain 4): 4
Minimum inhibitory concentration ([5]; Klebsiella pneumoniae clinical strain 5): 2
Minimum inhibitory concentration ([6]; Acinetobacter baumannii clinical strain 1): 4
Minimum inhibitory concentration ([6]; Acinetobacter baumannii clinical strain 2): 4
Minimum inhibitory concentration ([6]; Acinetobacter baumannii clinical strain 3): 4
Minimum inhibitory concentration ([6]; Acinetobacter baumannii clinical strain 4): 4
Minimum inhibitory concentration ([6]; Acinetobacter baumannii clinical strain 5): 4
Minimum inhibitory concentration ([7]; Staphylococcus aureus clinical strain 1): 1
Minimum inhibitory concentration ([7]; Staphylococcus aureus clinical strain 2): 1
Minimum inhibitory concentration ([7]; Staphylococcus aureus clinical strain 3): 1
Minimum inhibitory concentration ([7]; Staphylococcus aureus clinical strain 4): 1
Minimum inhibitory concentration ([7]; Staphylococcus aureus clinical strain 5): 1
Minimum inhibitory concentration ([8]; Serratia marcescens clinical strain 1): 64
Minimum inhibitory concentration ([8]; Serratia marcescens clinical strain 2): 64
Minimum inhibitory concentration ([8]; Serratia marcescens clinical strain 3): 64
Minimum inhibitory concentration ([8]; Serratia marcescens clinical strain 4): 64
Minimum inhibitory concentration ([8]; Serratia marcescens clinical strain 5): 128
MICs against Serratia marcescens ([8]; clinical strains): 64 to 128 µg/mL
Minimum inhibitory concentration ([9]; Enterobacter cloacae clinical strain 1): 1
Minimum inhibitory concentration ([9]; Enterobacter cloacae clinical strain 2): 2
Minimum inhibitory concentration ([9]; Enterobacter cloacae clinical strain 3): 2
Minimum inhibitory concentration ([9]; Enterobacter cloacae clinical strain 4): 2
Minimum inhibitory concentration ([9]; Enterobacter cloacae clinical strain 5): 1
Minimum inhibitory concentration ([10]; Streptococcus pneumoniae clinical strain 1): 8
Minimum inhibitory concentration ([10]; Streptococcus pneumoniae clinical strain 2): 4
Minimum inhibitory concentration ([10]; Streptococcus pneumoniae clinical strain 3): 2
Minimum inhibitory concentration ([10]; Streptococcus pneumoniae clinical strain 4): 4
Minimum inhibitory concentration ([10]; Streptococcus pneumoniae clinical strain 5): 4
Minimum inhibitory concentration ([11]; Proteus mirabilis clinical strain 1): >128
Minimum inhibitory concentration ([11]; Proteus mirabilis clinical strain 2): 32
Minimum inhibitory concentration ([11]; Proteus mirabilis clinical strain 3): 64
Minimum inhibitory concentration ([11]; Proteus mirabilis clinical strain 4): >128
Minimum inhibitory concentration ([11]; Proteus mirabilis clinical strain 5): >128
MICs against Proteus mirabilis ([11]; clinical strains): 64 to 128 µg/mL
Minimum inhibitory concentration [12]: 8
Minimum inhibitory concentration ([13]; C. parapsilosis clinical yeast strain 1): 8
Minimum inhibitory concentration ([13]; C. parapsilosis clinical yeast strain 2): 8
Minimum inhibitory concentration ([13]; C. parapsilosis clinical yeast strain 3): 8
Minimum inhibitory concentration ([13]; C. parapsilosis clinical yeast strain 4): 8
Minimum inhibitory concentration ([14]; Candida albicans clinical yeast strain 1): 16
Minimum inhibitory concentration ([14]; Candida albicans clinical yeast strain 2): 8
Minimum inhibitory concentration ([14]; Candida albicans clinical yeast strain 3): 8
Minimum inhibitory concentration ([14]; Candida albicans clinical yeast strain 4): 16
Minimum inhibitory concentration ([14]; Candida albicans clinical yeast strain 5): 8
